From patent publication US11168054B2, “Biaromatic compounds, which are vitamin D analogs” (DSM IP ASSETS B.V., priority 2015, dated 2021)

Target: T1, ligand-binding domain of the human VDR linked to the DNA-binding domain of the yeast transcription factor GAL4 (Homo sapiens, UniProt P11473)
T1 construct: expressed in transfected cells; host or cells: HEK293
T1 sequence (P11473 127-423 limits assumed): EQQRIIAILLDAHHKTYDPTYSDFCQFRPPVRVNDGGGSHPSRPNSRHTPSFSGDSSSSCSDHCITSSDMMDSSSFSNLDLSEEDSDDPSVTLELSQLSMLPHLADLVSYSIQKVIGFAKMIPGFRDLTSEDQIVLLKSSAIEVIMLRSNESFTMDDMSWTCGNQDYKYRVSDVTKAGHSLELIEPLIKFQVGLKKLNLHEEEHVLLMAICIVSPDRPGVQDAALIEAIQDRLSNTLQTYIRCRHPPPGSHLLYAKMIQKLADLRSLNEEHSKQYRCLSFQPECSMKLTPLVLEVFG
Assay: Human vitamin D receptor (VDR) agonist activity, cell based GAL4 hybrid luciferase transactivation assay
Conditions: HEK293 cells transiently transfected with VDR-LBD/GAL4 hybrid receptor and pFR-Luc reporter; 16 h incubation; luciferase luminescence; read-out: Effective concentrations of half maximal activation (EC50)
From the text: By way of example, the human vitamin D receptor (VDR) agonist activity of the claimed compounds can be tested using a cell based transactivation assay in an eukaryotic cell line. After a co-transfection, using a reporter plasmid construct and a hybrid receptor construct containing the ligand-binding domain of the human VDR linked to the DNA-binding domain of the yeast transcription factor GAL4, the cultured cells were stimulated by the VDR agonists. The hybrid VDR-GAL4 receptor binds the VDR agonists and transactivates luciferase reporter expression through the GAL4-response elements in the promoter of the luciferase gene (reporter construct). The VDR agonist binding and transactivation is determined by measuring the luciferase luminescence activity. The effective concentration of half maximal activation (EC50) was determined for the VDR agonists by means of dose-response experiments. The details of the protocol method of this test according to the invention are described in the example section.
Testing of the Human Vitamin D Receptor (VDR) Agonist Activity of the Compounds
The transient transfections were performed in HEK293 cells (ATCC, Molsheim, France) grown in minimum essential medium (Eagle) with Earle's balanced salt solution without L-glutamine and supplemented with 10% fetal bovine serum (Sigma-Aldrich Corp., St. Gallen, Switzerland), 2 mM glutamax (Life Technologies AG, Basel, Switzerland), 0.1 mM non-essential amino acids (Life Technologies), and 1 mM sodium pyruvate (Life Technologies) at 37° C. in 5% CO2. […] The cells were transiently transfected before stimulation the next day at >80% confluence by polyethylene-imine-based transfection. Compound stocks were prepared in DMSO, pre-diluted in PBS (0.45% final DMSO concentration), and added in the respective dilution 5 h after the addition of the transfection mixture onto the cells. The cells were again incubated for additional 16 h before firefly and renilla luciferases activity was measured sequentially in the same cell extract using buffers according to established protocols (Promega AG, Dübendorf, Switzerland). Transfection efficiency was controlled to the pRL-TK renilla luciferase reporter expression.

**Q.** Which EC50 does the source give for `CCCC1C(O)c2ccc(CCc3cccc(/C(=C/C=C/C(O)(CC)CC)CC)c3)cc2C1O` (stereo not shown) [Comp1, reference compound] here?
**A.** 0.21 µM

**Q.** How did the EC50 turn out when `CC/C(=C\C=C\C(O)(CC)CC)c1cccc(CCc2ccc3c(c2)C(O)CC3O)c1` (stereo not shown) [I-c, 5-(3-((3E,5E)-7-ethyl-7-hydroxynona-3,5-dien-3-yl)phenethyl)-2,3-dihydro-M-indene-1,3-diol] was run?
**A.** 0.049 µM

**Q.** `CC/C(=C\C=C\C(O)(CC)CC)c1cccc(CCc2ccc3c(c2)C(O)C(C)C3O)c1` (stereo not shown) [I-b, 5-(3-((3E,5E)-7-ethyl-7-hydroxynona-3,5-dien-3-yl)phenethyl)-2-methyl-2,3-dihydro-1H-indene-1,3-diol] was tested. Which EC50 did it give?
**A.** 0.034 µM

**Q.** With `CC/C(=C\C=C\C(O)(CC)CC)c1cccc(CCc2ccc3c(c2)C(O)C(C)(C)C3O)c1` (stereo not shown) [I-a, (5-(3-((3E,5E)-7-ethyl-7-hydroxynona-3,5-dien-3-yl)phenethyl)-2,2-dimethyl-2,3-dihydro-1H-indene-1,3-diol)] as the compound, how does the EC50 read?
**A.** 0.014 µM
